Data on one compound can be found in paper PMC5444705 (Oncotarget, 2017).

Each structure is given as a SMILES string. Like-named read-outs stand apart in the source and are kept apart here.

The conditions of data set [1]: mouse, in vivo, 4 mg/kg. The procedure:
To determine the toxicity of WND and WNP, we collected tissues from the mice used in efficacy study for histological analysis. […] For the efficacy study, 4 × 10^6 HepG2 cells were injected in the front armpit of the Balb/C nude mice. […] The tumor sizes were measured every other day and any death of the mice was recorded. […] TUNEL, Ki67 and hematoxylin and eosin (H&E) staining were performed by using the resected tumor tissue from mice for efficacy study. The tissue sections were examined and photographed with a microscope (Olympus SZX12, Japan) connected to a PC.

Another data set deals with Hep3B cells. Briefly: MTT assay, Hep3B. Type of data set: cell-based. Particulars: Homo sapiens. The protocol: (§1) HepG2, Hep3B, Huh7 or L02 cells were seeded in 96-well plates at a density of 5 × 10^3 cells per well. […] After 24 and 48 h of co-incubation, used media were removed and cells were washed twice with PBS. Fresh medium containing 20 μl of MTT ([…]) was added in and cells were cultured for an additional 4 h at 37°C in a 5% CO2incubator. After that, media were removed and 200 μl of DMSO was added in. The optical density value was determined by the microplate reader (Multiskan MK3, Thermo Fisher Scientific, Atlanta, GA, USA) at 492 nm.
In general terms: Formazan colour is commonly taken as a measure of viable cells.

The next data set has as its system HepG2 cells. Briefly: MTT assay, HepG2. Type of data set: cell-based. To be noted: Homo sapiens. The procedure: as §1
For a further data set, the system named is Huh7 cells. The experiment in a line: MTT assay, Huh7. It counts as cell-based. To be noted: Homo sapiens. The protocol: as §1
In another data set the test system is L02 cells. Briefly: MTT assay, L02. Type of data set: cell-based. Particulars: Homo sapiens. The procedure: as §1
The subject of the next data set is HepG2 xenograft tumor. The experiment in a line: Anti-tumor efficacy in HepG2 xenograft tumor mouse model. It counts as in vivo, Balb/C nude mice. To be noted: tail vein injection, 4 mg/kg (WCN-21), 25th day after injection. The protocol:
Tumor volume and mouse body weights were recorded during drug administration period. The mice were sacrificed at 25th day after the injection and tumors were collected for histology examination.
For the efficacy study, 4 × 10^6 HepG2 cells were injected in the front armpit of the Balb/C nude mice. […] The tumor sizes were measured every other day and any death of the mice was recorded. […] TUNEL, Ki67 and hematoxylin and eosin (H&E) staining were performed by using the resected tumor tissue from mice for efficacy study. The tissue sections were examined and photographed with a microscope (Olympus SZX12, Japan) connected to a PC.

For the compound `CC[C@@]1(O)C(=O)OCc2c1cc1n(c2=O)Cc2cc3c(CN(C)C)c(O)ccc3nc2-1` [Topotecan], in data set [1], the Body weight change entry is listed as “significant body weight loss”. Also, the “Histological analysis of hearts, livers, spleens, lungs and kidneys” value in data set [1] is “myocardial fiber fracture and cardiocytes necrosis in hearts, inflammatory infiltration in livers, atrophied white pulp in spleens and disorganization of renal corpuscles in kidneys”. For the same compound, the IC50 (usually the concentration that inhibits the measured activity by half) in the data set with Hep3B cells (24 h) was 462 ± 20 nM; with Hep3B cells (48 h), 112 ± 2.4 nM; in the data set on HepG2 cells (HepG2, 24 h), 1590 ± 20.6 nM; with HepG2 cells (HepG2, 48 h), 285 ± 9 nM; in the data set with Huh7 cells (Huh 7, 24 h), 500 ± 69 nM; in the data set on Huh7 cells (Huh 7, 48 h) it was 117 ± 48 nM. The IC50 was above 500 nM in the data set with L02 cells (L02, 24 or 48 h, time not specified, read-out: IC50 in L02 cells); above 500 nM with L02 cells (L02, 24 h, MTT, read-out: IC50); above 500 nM in the data set on L02 cells (L02, 48 h, MTT, read-out: IC50). Besides, the “Tumor size at 25th day” value with HepG2 xenograft tumor is recorded as 837 mm^3.
